What all share (test): in vitro antifungal screen, MIC by two-fold serial dilution
One assay concerns C. parapsilosis 2372E. It counts as cell-based, Candida parapsilosis. The method, then: (§1) The antifungal activity of the compounds of formula (I) may be determined using conventional in vitro and in vivo screens. Thus, the in vitro evaluation of the anti-fungal activity of compounds of the invention was performed on liquid or solid medium by the anti-fungal two-fold serial dilution technique of determining the minimum inhibitory concentration (MIC) of anti-fungal agent that inhibited development of growth after 24 to 48 hours of incubation at 37° C. In practice, a series of agar plates or broth microdilution panels containing two-fold dilutions of anti-fungal agent tested were inoculated with a standard culture of a clinically relevant pathogen, for example, Candida albicans. The agar plates or broth microdulution panels were then examined for the presence or absence of growth of the fungus and the appropriate MIC values were noted.
(§2) Compounds of formula (I) have been tested for anti fungal activity in a standard in vitro screen and the minimum inhibiting concentration (MIC; μg/ml) determined for each compound against a variety of clinically relevant pathogens.

A further assay relates to C. tropicalis 2808E. It counts as cell-based, Candida tropicalis. The method, then:
as §1, §2

Another assay has as its system C. glabrata 2375E. It counts as cell-based, Candida glabrata. The procedure: as §1, §2
Another assay relates to C. glabrata 522. It counts as cell-based, Candida glabrata. The procedure: as §1, §2
In the next assay the test system is C. albicans 4711E. It counts as cell-based, Candida albicans. The method, then: as §1, §2
For a further assay, the system named is C. albicans CL-236. It counts as cell-based, Candida albicans. The method, then:
as §1, §2

The test system of assay [1] is C. pseudotropicalis 2371E. It counts as cell-based, Candida pseudotropicalis. The procedure:
as §1, §2

≈ marks a conversion by molar mass, not a printed value.

One may read the MIC as the least concentration at which growth counts as inhibited. Take `CC1CN(Cc2ccccc2)CC(OCC23CC4C(C)CCC4C4(C=O)CC2C=C(C(C)C)C43C(=O)O)O1` [Example 1i, [1R-(1α,3aβ,4β,4aβ,7β,7aα,8aβ)]8a-[(2R,6R)-(4-benzyl-6-methylmorpholin-2-yl)-oxymethyl]-4-formyl-4,4a,5,6,7,7a,8,8a-octahydro-7-methyl-3-(1-methylethyl)-1,4-methano-s-indacene-3a(1H)-carboxylic acid]: the MIC is above 125 µg/mL against C. parapsilosis 2372E; 0.008 µg/mL (≈ 0.0153 µM) with C. tropicalis 2808E; 1 µg/mL (≈ 1.92 µM) in the assay with C. glabrata 2375E; 1 µg/mL (≈ 1.92 µM) against C. glabrata 522; “≦0.001 μg/ml” in the assay on C. albicans 4711E; “≦0.001 μg/ml” against C. albicans CL-236.

`CC1CN(C2CC2)CC(OCC23CC4C(C)CCC4C4(C=O)CC2C=C(C(C)C)C43C(=O)[O-])O1.[K+]` [Example 4, [1R-(1α,3aβ,4β,4aβ,7β,7aα,8aβ)]8a-[(2R,6R)-(4-cyclopropyl-6-methyl-morpholin-2-yl)-oxymethyl]-4-formyl-4,4a,5,6,7,7a,8,8a-octahydro-7-methyl-3-(1-methylethyl)-1,4-methano-s-indacene-3a(1H)-carboxylic acid, potassium salt]: the minimal inhibitory concentration (MIC) in assay [1] was 0.004 µg/mL; in the assay with C. parapsilosis 2372E, above 125 µg/mL; in the assay on C. tropicalis 2808E, 0.06 µg/mL; against C. glabrata 2375E, 4 µg/mL; against C. glabrata 522, 4 µg/mL; in the assay with C. albicans 4711E, “≦0.001 μg/ml”. Also, the MIC with C. albicans CL-236 worked out at 0.015 µg/mL.

With `C#CCN1CC(C)OC(OCC23CC4C(C)CCC4C4(C=O)CC2C=C(C(C)C)C43C(=O)O)C1` [Example 6, [1R-(1α,3aβ,4β,4aβ,7β,7aα,8aβ)]8a-[(2R,6R)-(4-(2-propynyl)-6-methyl-morpholin-2-yl)-oxymethyl]-4-formyl-4,4a,5,6,7,7a,8,8a-octahydro-7-methyl-3-(1-methylethyl)-1,4-methano-s-indacene-3a(1H)-carboxylic acid], the MIC is 0.015 µg/mL (≈ 0.0319 µM) in assay [1]; 16 µg/mL (≈ 34.1 µM) in the assay with C. parapsilosis 2372E; 0.06 µg/mL (≈ 0.128 µM) in the assay with C. tropicalis 2808E; 0.25 µg/mL (≈ 0.532 µM) with C. glabrata 2375E; 0.5 µg/mL (≈ 1.06 µM) against C. glabrata 522; 0.008 µg/mL (≈ 0.017 µM) in the assay on C. albicans 4711E. In the assay with C. albicans CL-236, the MIC was 0.015 µg/mL (≈ 0.0319 µM).

With `C=C(Br)CN1CC(C)OC(OCC23CC4C(C)CCC4C4(C=O)CC2C=C(C(C)C)C43C(=O)O)C1` [Example 7, [1R-(1α,3aβ,4β,4aβ,7β,7aα,8aβ)]8a-[(2R,6R)-(4-(2-bromoallyl)-6-methyl-morpholin-2-yl)-oxymethyl]-4-formyl-4,4a,5,6,7,7a,8,8a-octahydro-7-methyl-3-(1-methylethyl)-1,4-methano-s-indacene-3a(1H)-carboxylic acid], the MIC result is “≦0.001 μg/ml” in assay [1]; 4 µg/mL (≈ 7.27 µM) in the assay on C. parapsilosis 2372E; 0.008 µg/mL (≈ 0.0145 µM) against C. tropicalis 2808E; 0.25 µg/mL (≈ 0.454 µM) with C. glabrata 2375E; 0.25 µg/mL (≈ 0.454 µM) against C. glabrata 522; “≦0.001 μg/ml” against C. albicans 4711E. In addition, in the assay on C. albicans CL-236, the MIC is 0.008 µg/mL (≈ 0.0145 µM).

`C=C(Cl)CN1CC(C)OC(OCC23CC4C(C)CCC4C4(C=O)CC2C=C(C(C)C)C43C(=O)O)C1` (stereo not drawn) [Example 8, [1R-(1α,3aβ,4β,4aβ,7β,7aα,8aβ)]8a-[(2R6R)-(4-(2-chloroallyl)-6-methyl-morpholin-2-yl)-oxymethyl]-4-formyl-4,4a,5,6,7,7a,8,8a-octahydro-7-methyl-3-(1-methylethyl)-1,4-methano-s-indacene-3a(1H)-carboxylic acid]: the MIC entry in assay [1] was “≦0.001 μg/ml”; in the assay with C. parapsilosis 2372E, 1 µg/mL (≈ 1.98 µM); with C. tropicalis 2808E it was “≦0.001 μg/ml”; in the assay with C. glabrata 2375E, 0.03 µg/mL (≈ 0.0593 µM); against C. glabrata 522 it was 0.03 µg/mL (≈ 0.0593 µM); in the assay with C. albicans 4711E, “≦0.001 μg/ml”. In the assay with C. albicans CL-236, the MIC result is recorded as “≦0.001 μg/ml”.

In the case of `CC1CN(CC=C(F)F)CC(OCC23CC4C(C)CCC4C4(C=O)CC2C=C(C(C)C)C43C(=O)O)O1` [Example 10, [1R-(1α,3aβ,4β,4aβ,7β,7aα,8aβ)]8a-[(2R,6R)-(4-(3,3-difluoroallyl)-6-methyl-morpholin-2-yl)-oxymethyl]-4-formyl-4,4a,5,6,7,7a,8,8a-octahydro-7-methyl-3-(1-methylethyl)-1,4-methano-s-indacene-3a(1H)-carboxylic acid], the MIC in assay [1] worked out at 0.03 µg/mL (≈ 0.0591 µM); with C. parapsilosis 2372E, 16 µg/mL (≈ 31.5 µM); with C. tropicalis 2808E, 0.06 µg/mL (≈ 0.118 µM); in the assay on C. glabrata 2375E, 1 µg/mL (≈ 1.97 µM); against C. glabrata 522, 1 µg/mL (≈ 1.97 µM); in the assay on C. albicans 4711E it was 0.03 µg/mL (≈ 0.0591 µM). In the assay on C. albicans CL-236, this compound came in with a minimum inhibitory concentration (MIC) of 0.06 µg/mL (≈ 0.118 µM).

Regarding `C=C(C)CN1C[C@H](OC[C@@]23C[C@@H]4[C@H](C)CC[C@H]4[C@@]4(C=O)C[C@@H]2C=C(C(C)C)[C@@]34C(=O)O)O[C@H](C)C1` [Example 12], the MIC entry was “≦0.001 μg/ml” in assay [1]; 1 µg/mL (≈ 2.06 µM) with C. parapsilosis 2372E; 0.008 µg/mL (≈ 0.0165 µM) in the assay with C. tropicalis 2808E; 0.25 µg/mL (≈ 0.515 µM) in the assay on C. glabrata 2375E; 0.25 µg/mL (≈ 0.515 µM) against C. glabrata 522; “≦0.001 μg/ml” in the assay on C. albicans 4711E. For the same compound, the MIC entry against C. albicans CL-236 is on record as “≦0.001 μg/ml”.

In the case of `C=C=CCN1CC(C)OC(OCC23CC4C(C)CCC4C4(C=O)CC2C=C(C(C)C)C43C(=O)O)C1` [Example 14, [1R-(1α,3aβ,4β,4aβ,7β,7aα,8aβ)]8a-[(2R,6R)-4-(2,3-butadienyl)-6-methyl-morpholin-2-yl)-oxymethyl]-4-formyl-4,4a,5,6,7,7a,8,8a-octahydro-7-methyl-3-(1-methylethyl)-1,4-methano-s-indacene-3a(1H)-carboxylic acid], the MIC result was “≦0.001 μg/ml” in assay [1]; 8 µg/mL (≈ 16.5 µM) against C. parapsilosis 2372E; 0.015 µg/mL (≈ 0.031 µM) against C. tropicalis 2808E; 0.12 µg/mL (≈ 0.248 µM) against C. glabrata 2375E; 0.12 µg/mL (≈ 0.248 µM) against C. glabrata 522; “≦0.001 μg/ml” against C. albicans 4711E. Besides, in the assay with C. albicans CL-236, the MIC was found to be 0.004 µg/mL (≈ 0.00827 µM).

Consider `COc1ccc(CN2CC(C)OC(OCC34CC5C(C)CCC5C5(C=O)CC3C=C(C(C)C)C54C(=O)O)C2)cc1` [Example 16, [1R-(1α,3aβ,4β,4aβ,7β,7aα,8β)]8a-[(2R,6R)4-(4-methoxybenzyl)-6-methyl-morpholin-2-yl)-oxymethyl]-4-formyl-4,4a,5,6,7,7a,8,8a-octahydro-7-methyl-3-(1-methylethyl)-1,4-methano-s-indacene-3a(1H)-carboxylic acid], for which the MIC entry in assay [1] was “≦0.001 μg/ml”; in the assay with C. parapsilosis 2372E it was 2 µg/mL (≈ 3.63 µM); against C. tropicalis 2808E it was 0.008 µg/mL (≈ 0.0145 µM); with C. glabrata 2375E it was 0.25 µg/mL (≈ 0.453 µM); against C. glabrata 522, 0.25 µg/mL (≈ 0.453 µM); against C. albicans 4711E, “≦0.001 μg/ml”. Besides, the MIC result against C. albicans CL-236 is “≦0.001 μg/ml”.

For `CON1CC(C)OC(OCC23CC4C(C)CCC4C4(C=O)CC2C=C(C(C)C)C43C(=O)O)C1` [Example 18, 1R-(1α,3aβ,4β,4aβ,7β,7aα,8aβ)]8a-[(2R,6R)-6-methyl-4-methoxy-morpholin-2-yl)-oxymethyl]-4-formyl-4,4a,5,6,7,7a,8,8a-octahydro-7-methyl-3-(1-methylethyl)-1,4-methano-s-indacene-3a(1H)-carboxylic acid], the MIC was above 125 µg/mL in the assay on C. parapsilosis 2372E; 1 µg/mL (≈ 2.17 µM) against C. tropicalis 2808E; 8 µg/mL (≈ 17.3 µM) in the assay on C. glabrata 2375E; 8 µg/mL (≈ 17.3 µM) in the assay with C. glabrata 522; 0.03 µg/mL (≈ 0.065 µM) in the assay on C. albicans 4711E; 0.25 µg/mL (≈ 0.542 µM) in the assay on C. albicans CL-236.
